The values below come from publication PMC13223435, “Synthesis and Antiproliferative Activity against Melanoma Cells of New Heterocyclic Hybrids Based on Pyridine and Pyrimidine Scaffolds” (Current Medicinal Chemistry, 2025).

For one assay, the system named is melanoma A375 cells. Kind of assay: WST-1 antiproliferative assay. It is filed as cell-based. As to conditions: Homo sapiens, A-375; for activity at 10 µM: 48 h of treatment, A375, read-out: Cell proliferation (% control); for IC50: 48 hours of treatment. The text has this:
The A375 malignant melanoma cell line (ECACC 88113005, Salisbury, UK) was procured from the European Collection of Authenticated Cell Cultures (ECACC). The primary culture of human dermal fibroblasts (HDF) was derived from skin according to the protocol approved by the Ethical Committee of Pomeranian Medical University in Szczecin (KB-0012/02/18). The detailed protocol of fibroblast isolation, authentication, and cell culture conditions was previously described. Both cell lines were cultivated in a humidified incubator under conditions of 5% CO2 and a temperature of 37°C, using Dulbecco’s modified Eagle’s medium (DMEM) with 4500 mg/L glucose (Sigma-Aldrich Merck Group, St. Louis, MO, USA) enriched with 10% heat-inactivated fetal bovine serum (FBS, EURx, Gdańsk, Poland), 2 mM L-glutamine (Sigma-Aldrich Merck Group, St. Louis, MO, USA), and penicillin-streptomycin solution (Sigma-Aldrich Merck Group, St. Louis, MO, USA). Regular assessments for the presence of mycoplasma were conducted using the MycoAlert® Mycoplasma Detection Kit (Lonza, Rockland, ME, USA).
The evaluation of the antiproliferative activity of the compounds was performed using the Cell Proliferation Reagent WST-1 assay (Roche, Germany). This assay relies on the reduction of tetrazolium salt to formazan, with the final amount of formazan proportional to the number of viable cells. In our study, A375 cells (2×10^3) and HDF (3×10^3) were initially seeded into 96-well plates and cultured in a humidified atmosphere of 5% CO2 at 37°C. 24 hours later, the culture medium was replaced with a medium containing the tested compounds for a 48-hour incubation period at specified final concentrations. […] For control purposes, cells without the tested compounds, which contained only the vehicle (DMSO), were used. Additionally, a blank sample consisting of tested compounds in a medium (without cells) was included. After the 48-hour incubation period, the WST-1 reagent was introduced and allowed to incubate with the cells for 30 minutes. The absorbance was subsequently measured at 450 nm with background correction at 620 nm using a microplate reader (Infinite 200 Pro, Tecan, Männedorf, Switzerland). Cell viability was calculated according to the following formula: [(Atest–Ablank)/ (Acontrol − Ablank)] × 100%. These measurements were conducted in triplicate for at least three independent experiments.
In the screening step, 10 µM solutions of all 33 compounds were tested on A375 cells. […] Selected compounds (2c, 18e, 16b, 29) were tested at concentrations of 0.1, 1, 10, 50, and 100 µM. The IC50 values were determined using an online calculator (AAT Bioquest, Inc., Quest Graph™ IC50 Calculator (v.1). Retrieved from https://www.aatbio.com/tools/IC50-calculator-v1, accessed on: 2022, December 12).
Background: Tetrazolium assays rely on reduction of a dye to a coloured formazan, in cell work by metabolically active cells.

Another assay deals with T1, tubulin (Sus scrofa, UniProt P02550+P02554).
T1 construct: purchased Cytoskeleton, Denver, CO, USA
T1 sequence (P02554 whole entry): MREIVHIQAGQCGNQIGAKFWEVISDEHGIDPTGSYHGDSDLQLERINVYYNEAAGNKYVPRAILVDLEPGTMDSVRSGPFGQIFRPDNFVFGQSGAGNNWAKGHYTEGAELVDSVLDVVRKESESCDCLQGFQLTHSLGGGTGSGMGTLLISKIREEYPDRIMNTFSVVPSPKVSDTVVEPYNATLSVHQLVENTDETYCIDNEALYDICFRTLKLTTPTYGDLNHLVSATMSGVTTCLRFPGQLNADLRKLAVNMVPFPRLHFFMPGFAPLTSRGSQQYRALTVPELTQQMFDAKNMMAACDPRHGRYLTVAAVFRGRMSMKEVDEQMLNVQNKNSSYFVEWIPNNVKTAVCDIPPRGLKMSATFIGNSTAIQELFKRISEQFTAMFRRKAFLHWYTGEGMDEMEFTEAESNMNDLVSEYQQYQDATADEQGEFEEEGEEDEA
T1 sequence (P02550 whole entry): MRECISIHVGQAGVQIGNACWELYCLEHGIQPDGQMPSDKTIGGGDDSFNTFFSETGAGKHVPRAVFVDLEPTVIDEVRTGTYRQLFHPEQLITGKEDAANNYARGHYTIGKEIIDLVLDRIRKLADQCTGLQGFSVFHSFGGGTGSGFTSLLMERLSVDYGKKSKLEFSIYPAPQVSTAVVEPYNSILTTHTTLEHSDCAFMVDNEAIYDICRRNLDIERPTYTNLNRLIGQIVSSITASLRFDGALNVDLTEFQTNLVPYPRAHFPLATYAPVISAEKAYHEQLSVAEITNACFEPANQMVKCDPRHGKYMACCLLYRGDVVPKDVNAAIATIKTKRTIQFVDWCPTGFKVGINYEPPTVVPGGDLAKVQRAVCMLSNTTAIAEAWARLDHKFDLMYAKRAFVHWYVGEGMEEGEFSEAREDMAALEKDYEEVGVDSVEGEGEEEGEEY
Kind of assay: Cell free tubulin polymerization assay (fluorescence-based). The following applies: 3 µM. Type of assay: biochemical. The protocol: The tubulin polymerization process was evaluated using a tubulin (>99% pure) and fluorescence-based tubulin polymerization kit (Cytoskeleton, Denver, CO, USA). The effects of compounds 16b and 29 (at final concentrations of 1, 10, 50, 100 µM) on tubulin polymerization were evaluated in cell-free conditions. Paclitaxel (PTX) and vinblastine (VBL) (3 µM) were used as references, and DMSO (0.2%) was used as the vehicle control. This assay tracks the process of tubulin polymerization through an increase in fluorescence resulting from the addition of a fluorescence reporter to microtubules as polymerization occurs. After incubating the tested compounds at 37°C for 1 minute, the icy tubulin reaction mixture (2 mg/mL tubulin, 1.0 mM GTP, 15% glycerol in buffer containing 80 mM PIPES, 2.0 mM MgCl2, 0.5 mM EGTA, pH 6.9, and 10 µM fluorescent reporter) was added to the samples, which were then mixed and monitored using a spectrophotometric microplate reader (Infinite 200 Pro, Tecan) at 1-minute intervals for 90 minutes at 37°C (excitation: 360 nm, emission: 450 nm). The software installed on the plate reader was used to compute the maximum slope (Vmax) of the growth phase, measured in RFU/min, as outlined in the manufacturer's instructions. Each polymerization curve's Vmax was then standardized against the control curve's Vmax. The IC50 values were determined using an online tool (AAT Bioquest, Inc., Quest Graph™ IC50 Calculator ((v.1). Retrieved from https://www.aatbio.com/tools/IC50-calculator-v1, accessed on: 2024, May 6).

In the next assay the test system is A375 cells. Kind of assay: Live-cell imaging (time-lapse microscopy). Type of assay: cell-based. As to conditions: 1 µM, positive control. How it is done: For live-cell imaging, A375 cells were seeded into 96-well plates at a density of 2×10^3 cells per well and allowed to grow for 24 h before imaging. Next, the cell culture medium was carefully removed, and new medium containing 16b (at 2 µM and 10 µM) and 29 (at 5 µM and 10 µM) was added and the cell culture plate was placed in the imaging chamber of Agilent BioTek Lionheart FX automated microscope (Agilent Technologies, Inc., Santa Clara, CA, USA) equipped with a Plan Fluorite 20x/0.75 objective (Olympus, Nishi-Shinjuki, Tokyo, Japan), and a FLIR Blackfly BFLY-U3-23S6M camera (Teledyne FLIR, Wilsonville, OR, USA). The temperature in the imaging chamber was set to 37°C and CO2 level to 5%. The bright-field images were acquired every 5 minutes for 48 hours.

`S=C1CC(Cc2ccccc2)C(C#Cc2ccsc2)=CN1` (stereo not shown) [Compound 6b]: in the assay with melanoma A375 cells, the activity at 10 µM came out at 101 ± 6.05%.

As for `CC(=O)O[C@H]1C(=O)[C@@]2(C)[C@H]([C@H](OC(=O)c3ccccc3)[C@]3(O)C[C@H](OC(=O)[C@H](O)[C@@H](NC(=O)c4ccccc4)c4ccccc4)C(C)=C1C3(C)C)[C@]1(OC(C)=O)CO[C@@H]1C[C@@H]2O` [PTX, Paclitaxel, reference compound], the “effect on tubulin polymerization” value at tubulin is “reduced the duration of the nucleation phase and increased the Vmax”. Take `COc1cc(-c2cnc(=S)[nH]c2)cc(OC)c1OC` [Compound 1d]: the activity at 10 µM in the assay on melanoma A375 cells was 99.2 ± 10.8%.

On to `COc1ccc(C2=CNC(=S)N(C)C2C#Cc2ccsc2)cc1` (stereo not shown) [Compound 2b], for which the activity at 10 µM in the assay with melanoma A375 cells came out at 92.4 ± 2.51%. As for `S=c1ccc(-c2cccc3sccc23)c[nH]1` [Compound 13b], in the assay with melanoma A375 cells, the activity at 10 µM was found to be 77.5 ± 13.1%. On to `O=c1ccc(C#Cc2cccs2)c[nH]1` [Compound 5a], for which the activity at 10 µM in the assay on melanoma A375 cells was found to be 114 ± 4.12%. As to `S=c1ccc(-c2csc3ccccc23)c[nH]1` [Compound 13a], in the assay with melanoma A375 cells, the activity at 10 µM amounted to 100 ± 3.65%.

Turning to `S=C1CC=C(c2cccs2)C(Cc2ccccc2)N1CC1CC1` (stereo not shown) [Compound 17c], in the assay on melanoma A375 cells, the activity at 10 µM was 117 ± 2.07%. Turning to `COc1ccc(/C=C\c2cc(OC)c(OC)c(OC)c2)cc1O` [CA-4, combretastatin-4, reference compound], in the assay on A375 cells, the “time-lapse observation of A375 cells” value is given as “caused the formation of characteristic protrusions, indicating changes in the organization of the cytoskeleton leading to apoptosis with typical apoptotic bodies”. On to `COc1cc(C2=CNC(=S)NC2c2cccs2)cc(OC)c1OC` (stereo not shown) [Compound 2f], for which the activity at 10 µM with melanoma A375 cells stood at 127 ± 9.99%.

In the case of `Cn1c(CC2C=CCC(=O)N2c2ccccc2)cc2ccccc21` (stereo not shown) [Compound 24a], the activity at 10 µM in the assay with melanoma A375 cells stood at 107 ± 14.2%. On the same count and under the same terms, the value for `O=C1CC(Cc2ccccc2)C(n2cc(-c3ccccc3)nn2)=CN1` (stereo not shown) [Compound 10b] was 96.1 ± 4.11%; that for `COc1cc(C2=CNC(=S)NC2Cc2ccccc2)cc(OC)c1OC` (stereo not shown) [Compound 2e] was 138 ± 19.5%. Consider `CC[C@]1(O)C[C@@H]2CN(CCc3c([nH]c4ccccc34)[C@@](C(=O)OC)(c3cc4c(cc3OC)N(C)[C@H]3[C@@](O)(C(=O)OC)[C@H](OC(C)=O)[C@]5(CC)C=CCN6CC[C@]43[C@@H]65)C2)C1` [VBL, vinblastine, reference compound], for which the “effect on tubulin polymerization” value at tubulin is “suppressed tubulin polymerization, resulting in decreased Vmax and reduced final polymer mass of protein”.

`S=C1CC(Cc2nc3ccccc3o2)C=CN1c1ccccc1` (stereo not shown) [Compound 25b]: the activity at 10 µM in the assay on melanoma A375 cells stood at 88.9 ± 8.81%.

As usually defined, the IC50 is the concentration that inhibits the measured activity by half. Read a low IC50 as inhibition by little substance. In the case of `S=C1CC(Cc2ccccc2)C(c2ccco2)=CN1` (stereo not shown) [Compound 18e], in the assay with melanoma A375 cells, the activity at 10 µM was 51.4 ± 18.5% and the IC50 is 10.1 ± 0.75 µM. Consider `O=c1ccc(-n2cc(-c3ccsc3)nn2)c[nH]1` [Compound 9a], for which the activity at 10 µM in the assay with melanoma A375 cells turned out to be 114 ± 14.5%. Take `O=c1ccc(-c2cccc3sccc23)c[nH]1` [Compound 12b]: the activity at 10 µM in the assay on melanoma A375 cells is 97.8 ± 6.41%.

Take `O=C1CC(Cc2ccccc2)C(C(=O)N2CCOCC2)=CN1` (stereo not shown) [Compound 21]: in the assay with melanoma A375 cells, the activity at 10 µM worked out at 117 ± 13%. The same measure, in the same setting: the value for `S=C1CC(Cc2ccccc2)C(C#Cc2cccs2)=CN1` (stereo not shown) [Compound 6a] was 101 ± 9.41%.

Turning to `COc1ccc(C2=CNC(=S)N(C)C2C#Cc2ccccn2)cc1` (stereo not shown) [Compound 2d], the activity at 10 µM in the assay on melanoma A375 cells was determined as 93.3 ± 16.6%.

In the case of `COc1ccc(C#Cc2ccsc2)cn1` [Compound 4b], the activity at 10 µM in the assay on melanoma A375 cells is 111 ± 10.8%. For `S=c1ccc(-c2cccs2)cn1Cc1ccc2c(c1)OCO2` [Compound 16a], the activity at 10 µM in the assay on melanoma A375 cells worked out at 99.1 ± 3.1%.

As to `S=C1CC=C(c2ccco2)C(Cc2ccccc2)N1CC1CC1` (stereo not shown) [Compound 17d], the activity at 10 µM in the assay with melanoma A375 cells turned out to be 98.7 ± 1.41%. As to `COc1ccc(C2=CNC(=S)N(Cc3ccccc3)C2C#Cc2ccccc2)cc1` (stereo not shown) [Compound 2a], the activity at 10 µM with melanoma A375 cells amounted to 100 ± 6.85%. Turning to `O=c1ccc(-c2csc3ccccc23)c[nH]1` [Compound 12a], in the assay on melanoma A375 cells, the activity at 10 µM worked out at 106 ± 6.52%. The same measure, in the same setting: the value for `Cn1c(CC2C=CN(c3ccccc3)C(=O)C2)cc2ccccc21` (stereo not shown) [Compound 23a] was 67.6 ± 13.3%; that for `O=C1CC(Cc2ccccc2)C(n2cc(-c3ccsc3)nn2)=CN1` (stereo not shown) [Compound 10a] was 98.8 ± 12.6%. In the case of `O=C1CC(Cc2nc3ccccc3o2)C=CN1c1ccccc1` (stereo not shown) [Compound 25a], the activity at 10 µM in the assay with melanoma A375 cells was 104 ± 1.5%. Turning to `O=c1ccc(C#Cc2ccsc2)c[nH]1` [Compound 5b], in the assay on melanoma A375 cells, the activity at 10 µM turned out to be 113 ± 9.77%. As for `S=C1NC=C(c2ccccc2)C(C#Cc2ccsc2)N1Cc1ccccc1` (stereo not shown) [Compound 2c], in the assay with melanoma A375 cells, the activity at 10 µM was found to be 44.8 ± 6.68% and half-maximal inhibition (IC50) required 59.3 ± 9.62 µM. In the case of `Cn1c(CC2C=CN(c3ccccc3)C(=S)C2)cc2ccccc21` (stereo not shown) [Compound 23b], the activity at 10 µM in the assay on melanoma A375 cells was determined as 81.4 ± 14.9%.
